Experimental findings from patent US12508216B2, “Process for the preparation of antimalassezia powder” (PRAJ INDUSTRIES LIMITED, priority 2022, dated 2025) are described below.

≈ marks a conversion by molar mass, not a printed value. Entries after “also recorded” stand apart in the source; their conditions may differ. Like-named read-outs stand apart in the source and are kept apart here.

For test [1], the system named is M. globosa. The test is described as follows: Agar plate diffusion assay, zone of inhibition. The test is classed as cell-based, Malassezia globosa. Here is the method: (§1) said first extract is analyzed for antifungal activity using agar plate diffusion assay and by time kill procedure. […] For time-kill procedure, the inoculum suspension of indicator strains of Malassezia (10^5 CFU/mL) is exposed to different concentration of First extract. Then, 50-μL aliquots is withdrawn at fixed intervals and evaluated. […] Said first extract is used further for down streaming to separate the antifungal peptides.
(§2) About 15 ml fraction which was obtained after anion exchange chromatography was lyophilized to get about 1500 mg of dry powder. About 50 mg was mixed with 1 ml sodium phosphate buffer and then said solution was injected to Scalar C18 column. The separation of the antifungal peptides was carried out by binary solvent gradient elution system comprising about 0.1% trifluoroacetic acid in HPLC grade deionized water (eluent A) and about 0.1% trifluoroacetic acid in acetonitrile (eluent B). The gradient program was as follows between: 0 to 20 min, 0-40% B, 20-30 min, 40 to 80% B, 30 to 35 min, 80 to 100% B, 35 to 45 min, 100 to 0% B at a flow rate of about 1.0 mL/min at 30° C., Six separate fractions were collected at retention times of 24.5, 28.2, 30.1, 32.2, 34.5 and 37.1 minutes and seventh fraction was collected from 38 to 43 minutes according to the absorption profile at 220 nm and 280 nm using the fraction collector and further freeze-dried. Individual fractions were labelled as 1, 2, 3, 4, 5, 6 and 7 in the order if increasing retention times, dissolved in sterile distilled water and then tested for their individual antifungal activity. […] And fraction 5 was not reported against M. furfur, M. globose species. For experiment the 0.1 M sodium phosphate buffer was used as a negative control and Ketoconazol was used as a positive control

Test [2] concerns M. furfur. The test is described as follows: Agar plate diffusion assay, zone of inhibition. Format: cell-based, Malassezia furfur. Here is the method: as §1, §2
The test system of test [3] is M. furfur. As to the kind of experiment: MIC and MFC by broth microdilution technique. Format: cell-based, Malassezia furfur. The conditions noted are these: for MFC: first figure of MFC/MIC cell; for MIC: second figure of MFC/MIC cell. How it is done:
(§3) The MIC of first extract and individual fractions (1-7) which were collected from RP-HPLC was calculated by ‘broth microdilution technique’ in 96-well microtiter plates. […] As a positive control, commercially used antifungal drug ketoconazole was used in concentrations ranging from 32 μg/mL to 0.0156 μg/mL. The plates were incubated at 30° C. for Malassezia spp and the results were recorded after 48 h and 7 days. The minimum inhibitory concentration (MIC) was measured as the lowest sample concentration that could inhibit the fungal growth.
(In broth dilution the organism is exposed to a series of concentrations in liquid medium.)

For test [4], the system named is M. globosa. As to the kind of experiment: MIC and MFC by broth microdilution technique. Format: cell-based, Malassezia globosa. The conditions noted are these: for MFC: first figure of MFC/MIC cell; for MIC: second figure of MFC/MIC cell. Here is the method: as §3
The test system of test [5] is Malassezia indicator strains. The test is described as follows: Agar plate diffusion assay, antifungal activity in words. The test is classed as cell-based. The note with it: against Malassezia, compared among fractions 1-7. How it is done: as §1
About 15 ml fraction which was obtained after anion exchange chromatography was lyophilized to get about 1500 mg of dry powder. About 50 mg was mixed with 1 ml sodium phosphate buffer and then said solution was injected to Scalar C18 column. The separation of the antifungal peptides was carried out by binary solvent gradient elution system comprising about 0.1% trifluoroacetic acid in HPLC grade deionized water (eluent A) and about 0.1% trifluoroacetic acid in acetonitrile (eluent B). The gradient program was as follows between: 0 to 20 min, 0-40% B, 20-30 min, 40 to 80% B, 30 to 35 min, 80 to 100% B, 35 to 45 min, 100 to 0% B at a flow rate of about 1.0 mL/min at 30° C., Six separate fractions were collected at retention times of 24.5, 28.2, 30.1, 32.2, 34.5 and 37.1 minutes and seventh fraction was collected from 38 to 43 minutes according to the absorption profile at 220 nm and 280 nm using the fraction collector and further freeze-dried. […]

The MIC is the lowest concentration that inhibits growth of the organism. Turning to C15 Bacillomycin D [Fraction 3], the Zone of inhibition is given as 2 ± 0.25 mm with M. globosa [1] and 3 ± 0.26 mm with M. furfur [2]. For the same molecule, the MFC against M. furfur [3] (M. furfur), in the test on M. furfur [3] (first M. furfur column) and with M. globosa [4] was more than 228 µg/mL throughout. Moreover, the MIC against M. furfur [3] (M. furfur), against M. furfur [3] (first M. furfur column) and in the test on M. globosa [4] was more than 228 µg/mL each time.

As to C14 Bacillomycin D [Fraction 2], the Zone of inhibition in the test on M. globosa [1] came out at 2 ± 0.42 mm; in the test on M. furfur [2], 2 ± 0.45 mm. The MFC against M. furfur [3] (M. furfur), against M. furfur [3] (first M. furfur column) and with M. globosa [4] was more than 228 µg/mL in each case. Moreover, the MIC against M. furfur [3] (M. furfur), against M. furfur [3] (first M. furfur column) and against M. globosa [4] was more than 228 µg/mL throughout.

For the molecule `C[C@@H]1CCC/C=C/C=C/[C@H](O)C[C@@H](O)C/C=C\C=C\[C@@H](O)C/C=C/C=C\C(=O)O1` [Fraction 5, Macrolactin A], the figures for the Zone of inhibition with M. globosa [1] and in the test on M. furfur [2] were 2 ± 0.69 mm and 2 ± 0.77 mm, respectively. The MFC in the test on M. furfur [3] (M. furfur) came to 330 µg/mL (≈ 820 µM); against M. furfur [3] (first M. furfur column), 313 µg/mL (≈ 778 µM); in the test with M. globosa [4], 275 µg/mL (≈ 683 µM). The minimal inhibitory concentration (MIC) turned out to be 165 µg/mL (≈ 410 µM) against M. furfur [3] (M. furfur), 156 µg/mL (≈ 388 µM) against M. furfur [3] (first M. furfur column) and 138 µg/mL (≈ 343 µM) against M. globosa [4]. For the same molecule, the “antifungal activity of individual fractions in words” value in test [5] is given as “strongest anti-fungal activity”.

For `CC(=O)N1CCN(c2ccc(OCC3COC(Cn4ccnc4)(c4ccc(Cl)cc4Cl)O3)cc2)CC1` (stereo not drawn) [Ketoconazole, reference compound], the Zone of inhibition in the test on M. globosa [1] was 11 ± 0.64 mm; with M. furfur [2], 12 ± 0.65 mm. The MFC worked out at 0.1 µg/mL (≈ 0.188 µM) against M. furfur [3] (M. furfur); 0.1 µg/mL (≈ 0.188 µM) with M. furfur [3] (Malassezia furfur, first M. furfur column, read-out: MFC); 0.08 µg/mL (≈ 0.151 µM) in the test on M. globosa [4] (Malassezia globosa, read-out: MFC). The MIC was found to be 0.03 µg/mL (≈ 0.0565 µM) against M. furfur [3] (M. furfur); 0.03 µg/mL (≈ 0.0565 µM) in the test with M. furfur [3] (Malassezia furfur, first M. furfur column, read-out: MIC); 0.03 µg/mL (≈ 0.0565 µM) with M. globosa [4] (Malassezia globosa, read-out: MIC).

With C16 Bacillomycin D [Fraction 4], the MFC against M. furfur [3] (M. furfur), in the test on M. furfur [3] (first M. furfur column) and against M. globosa [4] was more than 228 µg/mL throughout. In addition, the MIC against M. furfur [3] (M. furfur), in the test with M. furfur [3] (first M. furfur column) and in the test on M. globosa [4] was more than 228 µg/mL in each case.

For the molecule `CC1CCCC=CC=CC(O)CC(O)CC=CC=CC(OC(=O)CCC(=O)O)CC=CC=CC(=O)O1` (stereo not drawn) [Fraction 6, 7-O-succinylmacrolactin A], the Zone of inhibition is recorded as 7 ± 0.65 mm in the test with M. globosa [1] and 6 ± 0.7 mm in the test with M. furfur [2]. The MFC with M. furfur [3] (M. furfur), in the test with M. furfur [3] (first M. furfur column) and against M. globosa [4] was 96 µg/mL (≈ 191 µM) in each case. The MIC in the test with M. furfur [3] (M. furfur), in the test on M. furfur [3] (first M. furfur column) and in the test on M. globosa [4] was 48 µg/mL (≈ 95.5 µM) in each case. Also, in test [5], the “antifungal activity of individual fractions in words” value is “strongest anti-fungal activity; also recorded: strongest antifungal activity”.
